Data: patent publication US5036070A, “Polycyclic phenalkyl amines as psychotropic agents” (American Home Products Corporation, priority 1990, dated 1991)

Columns and labels:
[1] = target: T1, 5-HT1A serotonin receptor (Rattus norvegicus, UniProt P19327); conditions: standard for anxiolytic activity; cited from earlier work
T1 sequence (P19327 1-422): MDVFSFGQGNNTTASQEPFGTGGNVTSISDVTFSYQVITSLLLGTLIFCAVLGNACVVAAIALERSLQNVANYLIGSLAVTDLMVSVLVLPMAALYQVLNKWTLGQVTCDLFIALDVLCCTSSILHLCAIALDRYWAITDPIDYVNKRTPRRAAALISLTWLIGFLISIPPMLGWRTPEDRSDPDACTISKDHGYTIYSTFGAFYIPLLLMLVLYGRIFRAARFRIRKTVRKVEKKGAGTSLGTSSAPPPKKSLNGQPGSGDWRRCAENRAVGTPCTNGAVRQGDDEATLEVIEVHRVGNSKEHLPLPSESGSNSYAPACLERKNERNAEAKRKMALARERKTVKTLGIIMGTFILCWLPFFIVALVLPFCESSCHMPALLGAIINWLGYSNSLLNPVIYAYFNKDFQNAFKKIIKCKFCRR

[2] = target: T1, 5-HT1A serotonin receptor; test: Serotonin 5-HT1A receptor binding (displacement of [3H]-8-OHDPAT); set-up: from tissue; conditions: [3H]-8-OHDPAT displacement
From the text: High affinity for the serotonin 5-HT1A receptor was established by testing the claimed compounds ability to displace [^3 H]-8-OHDPAT (dipropylaminotetralin) from the 5-HT1A serotonin receptor following the procedure of Hall et al., J. Neurochem. 44, 1685 (1985). […] The anxiolytic activity of buspirone is believed to be, at least partially, due to its 5-HT1A receptor affinity (Vander Maclen et al., Eur. J. Pharmacol. 1986, 129 (1-2), 133-130.

[3] = target: T2, dopamine D-2 receptor (Rattus norvegicus, UniProt P61169); test: Dopamine D-2 receptor binding ([3H]-spiroperidol, homogenized limbic brain tissue)
T2 construct: from tissue; host or cells: homogenized limbic brain tissue
T2 sequence (P61169 whole entry): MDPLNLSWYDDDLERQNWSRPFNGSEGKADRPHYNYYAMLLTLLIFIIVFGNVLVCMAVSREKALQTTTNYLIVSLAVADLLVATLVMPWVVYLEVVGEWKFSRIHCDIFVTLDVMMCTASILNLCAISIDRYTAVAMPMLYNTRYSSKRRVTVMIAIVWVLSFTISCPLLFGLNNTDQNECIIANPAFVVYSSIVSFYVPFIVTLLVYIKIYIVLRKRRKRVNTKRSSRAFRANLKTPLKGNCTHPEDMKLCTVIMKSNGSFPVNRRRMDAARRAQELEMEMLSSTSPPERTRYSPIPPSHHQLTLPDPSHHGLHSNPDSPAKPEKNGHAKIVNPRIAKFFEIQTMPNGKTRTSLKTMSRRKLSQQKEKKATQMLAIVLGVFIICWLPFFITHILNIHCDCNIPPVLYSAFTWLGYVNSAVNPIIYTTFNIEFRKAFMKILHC
Procedure: High affinity for the dopamine D-2 receptor was established by the standard experimental test procedure of Fields et al., Brain Res., 136, 578 (1977) and Yamamura et al., eds. Neutrotransmitter Receptor Binding, Raven Press, N.Y. (1978) wherein homogenized limbic brain tissue is incubated with ^3 H-spiroperidol and various concentrations of test compound, filtered and washed and shaken with Hydrofluor scintillation cocktail (National Diagnostics) and counted in a Packard 460 CD scintillation counter.

inhibition at 1 µM [2] | inhibition at 1 µM [3] | Compound | affinity for the 5-HT1A serotonin receptor subtype (in words) [1]
48% | 82% | Clc1cncc(N2CCN(CCCOc3ccc4c(c3)CCC4)CC2)n1 [Example 3] | –
43% | – | Fc1ccc(C(c2ccc(F)cc2)N2CCN(CCCOc3ccc4c(c3)CCC4)CC2)cc1 [Example 2, 1-[4-[3-[(2,3-Dihydro-1H-indan-5-yl)oxy]propyl]-1-piperazinyl]bis(4-fluorophenyl)methane] | –
91% | 85% | c1cnc(N2CCN(CCCOc3ccc4c(c3)CCC4)CC2)nc1 [Example 1] | –

The next lines start with the compound.

Compound | inhibition at 1 µM [2] | inhibition at 1 µM [3] | affinity for the 5-HT1A serotonin receptor subtype (in words) [1]
O=C1CC2(CCCC2)CC(=O)N1CCCCN1CCN(c2ncccn2)CC1 [buspirone] | – | – | potent affinity
c1ccc2c(c1)OCC(CNCCOc1ccc3c(c1)CCC3)O2 (stereo not drawn) [Example 5, N-[2-[(2,3-Dihydro-1H-indan-5-yl)oxy]ethyl]-2,3-dihydro-1,4-benzodioxan-2-methanamine] | 76% | 100% | –
c1ccc2c(c1)OCC(CNCCCCOc1ccc3c(c1)CCC3)O2 (stereo not drawn) [Example 4, N-[4-[(2,3-Dihydro-1H-indan-5-yl)oxy]butyl]-2,3-dihydro-1,4-benzodioxan-2-methanamine] | 92% | 97% | –
c1ccc2c(c1)OCC(CNCCCOc1ccc3c(c1)CCC3)O2 (stereo not drawn) [Example 6, N-[3-[(2,3-Dihydro-1H-indan-5-yl)oxy]propyl]-2,3-dihydro-1,4-benzodioxan-2-methanamine] | 99% | 95% | –
